Test results: patent US20170143716A1, “METHOD OF TREATING PROLIFERATIVE DISORDERS AND OTHER PATHOLOGICAL CONDITIONS MEDIATED BY BCR-ABL, C-KIT, DDR1, DDR2 OR PDGF-R KINASE ACTIVITY” (Novartis AG, priority 2009, published 2017)

What was measured:
[1] = PK study in healthy volunteers (4-way crossover, morning vs evening dosing); type: in vivo, human
Protocol: The increased exposure with QHS was confirmed in a study investigating nilotinib pharmacokinetics in healthy volunteers (HV) comparing cohorts receiving 600 mg morning dose or 600 mg morning dose QHS, respectively. In a single center, 4-way crossover study (n=16-24), HV group A was administered 300 mg nilotinib (in the form of nilotinib monohydrochloride monohydrate) in the morning, 2 hours after breakfast; HV group B was administered 300 mg nilotinib (in the form of nilotinib monohydrochloride monohydrate) in the evening, 2 hours after diner; HV group C was administered 600 mg nilotinib (in the form of nilotinib monohydrochloride monohydrate) in the evening, 2 hours after diner; and HV group D was administered 600 mg nilotinib (in the form of nilotinib monohydrochloride monohydrate) in the evening, 4 hours after diner.
The nilotinib PK was compared when administered in the evening versus administration in the morning (B vs. A) and the potential residual food effect on nilotinib absorption was assessed (D vs. C).

[2] = Study in CML patients obtaining 400 mg nilotinib twice daily (trough concentrations C0, C12); type: in vivo, human; settings: 21 CML patients, 400 mg twice daily
Protocol: 21 Patients were treated with 400 mg nilotinib twice daily. Blood samples were collected prior to morning dose (C0) and prior to evening dose (C12). […] With other words, the trough concentration of nilotinib in the morning was 60 to 80% higher than that observed in the evening.

[3] = human, in vivo, po, 400 mg
Protocol: The effect of food on the pharmacokinetic parameters of 400 mg oral dose of nilotinib in the formulation mentioned above was studied in human subjects. […] In view of these findings, it is recommended that nilotinib shall not be taken with a meal in order to minimize the effect of food on nilotinib bioavailability. A statement in this regard is, for instance, included in sections 4.2, 4.4 and 4.5 of the SPC (Summary of Product Characteristics) of the marketing authorization for Tasigna™ issued by the European Medicines Agency (EMEA).

[4] = 300 mg evening vs 300 mg morning
[5] = 600 mg evening 4 hours after diner vs 2 hours after diner
[6] = group A: 300 mg in the morning, 2 hours after breakfast, N = 20
[7] = group B: 300 mg in the evening, 2 hours after diner, N = 18
[8] = group C: 600 mg in the evening, 2 hours after diner, N = 22
[9] = group D: 600 mg in the evening, 4 hours after diner, N = 22

**Q.** What does the source list for `Cc1cn(-c2cc(NC(=O)c3ccc(C)c(Nc4nccc(-c5cccnc5)n4)c3)cc(C(F)(F)F)c2)cn1` [nilotinib, 4-methyl-3-[[4-(3-pyridinyl)-2-pyrimidinyl]amino]-N-[5-(4-methyl-1H-imidazol-1-yl)-3-(trifluoromethyl)phenyl] benzamide]?
**A.** AUC0-12, Geometric Mean Ratio (90% Cls) B vs A [1, 4]: 1.21; AUC0-24, Geometric Mean Ratio (90% Cls) B vs A [1, 4]: 1.21; AUC0-inf, Geometric Mean Ratio (90% Cls) B vs A [1, 4]: 1.09; AUC0-tlast, Geometric Mean Ratio (90% Cls) B vs A [1, 4]: 1.14; Cmax, Geometric Mean Ratio (90% Cls) B vs A [1, 4]: 1.14; tmax, Geometric Mean Ratio (90% Cls) B vs A [1, 4]: 0.49; AUC0-12, Geometric Mean Ratio (90% Cls) D vs C [1, 5]: 0.93; AUC0-24, Geometric Mean Ratio (90% Cls) D vs C [1, 5]: 0.93; AUC0-inf, Geometric Mean Ratio (90% Cls) D vs C [1, 5]: 0.94; AUC0-tlast, Geometric Mean Ratio (90% Cls) D vs C [1, 5]: 0.94; Cmax, Geometric Mean Ratio (90% Cls) D vs C [1, 5]: 0.92; tmax, Geometric Mean Ratio (90% Cls) D vs C [1, 5]: −0.49; AUC0-12 [1, 6]: 4577 ng·h/mL; AUC0-24 [1, 6]: 7781 ng·h/mL; AUC0-inf [1, 6]: 14920 ng·h/mL; AUC0-tlast [1, 6]: 13650 ng·h/mL; Cmax [1, 6]: 577 ng/mL; t1/2 [1, 6]: 20.3 h; tmax [1, 6]: 4.0 h; AUC0-12 [1, 7]: 5537 ng·h/mL; AUC0-24 [1, 7]: 9435 ng·h/mL; AUC0-inf [1, 7]: 16272 ng·h/mL; AUC0-tlast [1, 7]: 15556 ng·h/mL; Cmax [1, 7]: 655 ng/mL; t1/2 [1, 7]: 14.5 h; tmax [1, 7]: 4.0 h; AUC0-12 [1, 8]: 7124 ng·h/mL; AUC0-24 [1, 8]: 11857 ng·h/mL; AUC0-inf [1, 8]: 23216 ng·h/mL; AUC0-tlast [1, 8]: 20819 ng·h/mL; Cmax [1, 8]: 854 ng/mL; t1/2 [1, 8]: 20.5 h; tmax [1, 8]: 4.0 h; AUC0-12 [1, 9]: 6650 ng·h/mL; AUC0-24 [1, 9]: 111064 ng·h/mL; AUC0-inf [1, 9]: 21937 ng·h/mL; AUC0-tlast [1, 9]: 19591 ng·h/mL; Cmax [1, 9]: 782 ng/mL; t1/2 [1, 9]: 19.9 h; tmax [1, 9]: 4.0 h; exposure higher following the evening dose than the morning dose ([1]; healthy volunteers, evening vs morning dose): up to 20%; ratio C0/C12 (concentration prior to morning dose / prior to evening dose) [2]: 1.7; increase in total exposure (AUC0-t) with food [3]: 29%; total exposure (AUC0-t) increase with food [3]: 82%
